In publication PMC7611204 (Molecular cancer therapeutics, 2020):

Assays:
[1] = molecular target: T1, serine hydroxymethyltransferase 2 (SHMT2) (Homo sapiens, UniProt P34897); experiment: microscale thermophoresis with labeled recombinant human SHMT2; format: binding
T1 sequence (P34897 30-504): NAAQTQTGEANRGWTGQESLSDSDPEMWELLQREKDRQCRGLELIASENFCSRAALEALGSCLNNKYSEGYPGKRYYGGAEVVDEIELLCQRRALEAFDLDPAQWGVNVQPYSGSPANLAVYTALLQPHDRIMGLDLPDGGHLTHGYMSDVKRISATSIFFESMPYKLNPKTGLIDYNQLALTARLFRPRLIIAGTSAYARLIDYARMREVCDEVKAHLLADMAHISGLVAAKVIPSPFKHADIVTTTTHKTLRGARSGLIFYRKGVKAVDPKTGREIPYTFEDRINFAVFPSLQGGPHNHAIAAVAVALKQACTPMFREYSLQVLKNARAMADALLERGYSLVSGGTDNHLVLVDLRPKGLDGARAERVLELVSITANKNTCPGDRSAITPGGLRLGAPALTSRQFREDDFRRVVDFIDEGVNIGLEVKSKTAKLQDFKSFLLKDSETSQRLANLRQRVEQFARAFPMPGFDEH

[2] = molecular target: T2, phosphoglycerate dehydrogenase (PHGDH) (Homo sapiens, UniProt O43175)
T2 sequence (O43175 2-533): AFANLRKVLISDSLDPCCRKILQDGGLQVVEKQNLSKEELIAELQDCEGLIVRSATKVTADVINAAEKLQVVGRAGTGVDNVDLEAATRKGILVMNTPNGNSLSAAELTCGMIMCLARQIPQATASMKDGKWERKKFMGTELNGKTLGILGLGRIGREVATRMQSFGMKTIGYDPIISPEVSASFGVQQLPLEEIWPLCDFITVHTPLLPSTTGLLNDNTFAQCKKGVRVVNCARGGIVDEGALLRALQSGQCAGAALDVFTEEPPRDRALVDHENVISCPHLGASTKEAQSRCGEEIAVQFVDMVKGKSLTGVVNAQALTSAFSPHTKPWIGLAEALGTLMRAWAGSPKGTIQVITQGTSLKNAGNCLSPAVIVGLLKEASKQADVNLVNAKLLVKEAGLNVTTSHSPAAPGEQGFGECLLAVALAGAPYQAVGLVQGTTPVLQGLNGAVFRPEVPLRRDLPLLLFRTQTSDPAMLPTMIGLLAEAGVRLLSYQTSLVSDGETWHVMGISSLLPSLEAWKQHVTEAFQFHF

SMILES | Kd [1] | IC50 [2]
CN[C@H]1CC[C@@H](c2ccc(Cl)c(Cl)c2)c2ccccc21 [sertraline] | 13.1 µM | 
C[CH2][Hg][S]c1ccccc1C(=O)O [thimerosal] |  | 152 nM
